This note sets out measurements from US20220041578A1, “ISOINDOLINE COMPOUND, AND PREPARATION METHOD, PHARMACEUTICAL COMPOSITION, AND APPLICATION OF ISOINDOLINE COMPOUND” (Shanghai Institute of Meteria Medica, Chinese Academy of …, priority 2018, published 2022).

The subject of one assay is TNF-α. Kind of assay: TNF-α activity inhibition experiment in LPS-stimulated PBMC (ELISA). The settings on record: Homo sapiens, compound 10 nM, LPS 1 ug/ml, 72 hours, read-out: Inhibition rate of TNF-a (%). The format is cell-based. The protocol:
(§1) All operations of this experiment were carried out according to the conventional experimental process of this kind of experiment at present. Peripheral blood from healthy volunteers was collected by routine standard procedure and cultured in 1640 medium (+10% FBS) to obtain PBMC. After recovery, PBMC was centrifuged and resuspended in serum-free medium. After counting, adjusted the density to be 6.25×10^5/ml; then inoculated 160 ul to a 96-well plate, 1×10^5/well; 20 ul 10× compound and DMSO were added, and incubated for 1 hour in an incubator; then 20 ul 10 XLPS was added resulting the final concentration of 1 ug/ml and incubated in an incubator for 72 hours. Centrifuged the cell plate at 1500 rpm and aspirated 50 ul supernatant according to the ELISA operation. After operating according to the kit, a microplate reader was used to read at 450 nm. The concentration of compound was 10 nM, and DMSO was added as control group. Materials used in this experiment: 96 well plate (Corning, #3599), ELISA kit (Thermo), LPS (Sigma, USA).
For orientation: ELISA stands for enzyme-linked immunosorbent assay.

The subject of another assay is IL-2. Briefly: IL-2 expression change in anti-human CD3 stimulated PBMC (ELISA). In kind it is cell-based. The note with it: compound 10 nM, anti-human CD3 10 ug/ml, 24 hours. On the procedure:
as §1, with “plate, 2 holes each,” for “plate,”, “ul 10× anti-human CD3” for “ul 10 XLPS”, “of 10” for “of 1”, “for 24” for “for 72”

A further assay deals with IFNγ. Briefly: IFNγ expression change in anti-human CD3 stimulated PBMC (ELISA). The format is cell-based. The settings on record: compound 10 nM, anti-human CD3 10 ug/ml, 24 hours. On the procedure:
as §1, with “plate, 2 holes each,” for “plate,”, “ul 10× anti-human CD3” for “ul 10 XLPS”, “of 10” for “of 1”, “for 24” for “for 72”, “USA). It was found from the test results of the following table that the compounds of the examples of the present invention could be used to regulate the expression of IFNγ.” for “USA).”

The next assay has as its system MM.1S cells. Kind of assay: Effect of the compound on the proliferation of MM.1S cells (MTS). The format is cell-based. The settings on record: Homo sapiens, MM1.S, 168 h, 7 days, read-out: Cell inhibitory activity (IC50). An outline of the steps: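 In 1640 medium + 10% FBS, 20,000 cells per well were treated with 5-fold compound dilutions at 0.2% DMSO for 7 days at 37° C., 5% CO2. MTS was read after 3–4 h as OD490−OD690, inhibition was calculated against DMSO and blank wells, and IC50 was fitted; three independent experiments were run.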

The next assay addresses T1, CRBN (Homo sapiens, UniProt Q96SW2).
T1 construct: lyse the blood tumor Mino cells, and centrifuged to obtain a clear cell lysate; endogenous in cells; host or cells: Mino cells (mantle cell lymphoma), lysate
Briefly: Verification of interaction between compound and CRBN (elution from thalidomide FG beads, Western blotting). The format is binding. Set-up: dose or concentration left out as unconfirmed. The settings on record: Mino cell lysate, 25° C., 15 minutes, Western blotting with CRBN antibody. From the text:
Studies have shown that lenalidomide immunomodulators in hematological tumor cell lines regulate the activity of CRBN-ubiquitin ligase complex by binding to CRBN, selectively induce ubiquitination and degradation of transcription factors IKZF1 and IKZF3, thereby achieving the role of treating malignant hematological tumors (Science, 2014, 343, 301; Science, 2014, 343, 305; Nature, 2015, 523, 183). By using high-efficiency affinity magnetic nanoparticles “FG beads”, thalidomide analogues were pre-attached to the magnetic beads, and the thalidomide FG beads could catch CRBN protein (Leukemia, 2012, 26, 2326; Science, 2010, 327, 1345). In this experiment, NP-400 cell lysate was used to lyse the blood tumor Mino cells, and centrifuged to obtain a clear cell lysate and divided it into three samples evenly. Thalidomide FG beads were added to the three samples, and the Thalidomide FG beads and the cell lysate were combined and incubated at 4° C. for 6 hours. After the incubation was completed, separated the magnetic beads with a magnetic stand, resuspended the separation with NP-400 lysate, repeated 3 times to obtain magnetic beads removed excess cell lysate. […] The eluate was denatured by heating with SDS Loading Buffer, and the amount of CRBN in each sample was detected by Western blotting with CRBN antibody (Proteintech).
Background: A western blot detects proteins with antibodies after separation by electrophoresis.

The subject of a further assay is Mino cells. Kind of assay: Effect of the compound on the proliferation of Mino cells (MTS). The format is cell-based. The settings on record: Homo sapiens, 72 h, 3 days, read-out: Inhibitory activity (IC50). The protocol:
Mino cells were cultured with 1640 plus […] and collected. The cell concentration was diluted according to the action time of 3 days, and 90 ul cell suspension was added to each well of the 96-well cell plate to make the cell count to be 8000. 10 ul of DMSO with a final concentration of 0.2% was added to the control cell wells. The compound was diluted 5-fold with the 10 mM stock solution, and 10 ul was also added to the compound cell wells (the final concentration of DMSO was 0.2%). The cells were placed in a 37° C., […] incubator and incubated for 3 days. After preparing the reaction solution according to the MTS kit (Promega, G5430), 20 μL was added to each well, incubated in a 37° C., 5% CO2 incubator for 3-4 h. Read the 490 nm absorbance value with a microtiter plate, and used the 690 nm absorbance value as the background value and OD490-OD690 as the final initial data. The formula for calculating the inhibition rate of the compound was: inhibition rate=(OD DMSO-ODcompound)/(ODDMSO-Oblank)×100%. The compound's proliferation inhibition IC50 was fitted by Graph Pad Prism 5.0. The experiment was repeated three times, and three parallel experiments were used to calculate the average and standard deviation each time.

T1 sequence (Q96SW2 whole entry): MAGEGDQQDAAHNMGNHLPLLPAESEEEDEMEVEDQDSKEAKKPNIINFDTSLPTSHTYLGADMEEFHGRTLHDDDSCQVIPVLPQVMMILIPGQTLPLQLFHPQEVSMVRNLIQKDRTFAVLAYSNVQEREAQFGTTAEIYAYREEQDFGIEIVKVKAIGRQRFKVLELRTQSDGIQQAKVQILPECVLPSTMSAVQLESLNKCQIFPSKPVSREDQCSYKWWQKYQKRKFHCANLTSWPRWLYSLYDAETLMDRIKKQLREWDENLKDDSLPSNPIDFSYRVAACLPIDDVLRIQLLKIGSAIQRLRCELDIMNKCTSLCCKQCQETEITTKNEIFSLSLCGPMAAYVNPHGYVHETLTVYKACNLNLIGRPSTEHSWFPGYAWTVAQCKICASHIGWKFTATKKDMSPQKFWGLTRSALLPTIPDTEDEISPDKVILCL

As for `O=C1CCC(N2Cc3c(OCc4cn(-c5ccc(OC(F)(F)F)cc5)nn4)cccc3C2=O)C(=O)N1` (stereo not drawn) [CCC-135 (compound 17)], in the assay with TNF-α, the inhibition at 0.01 µM was above 50%. Moreover, the “Increase multiple of IL-2 Expression” value in the assay with IL-2 is reported as above 3. The “Increase multiple of IFNγ expression” value with IFNγ is recorded as above 1.5.

As to `O=C1CCC(N2Cc3c(OCc4cn(-c5ccc(OC(F)(F)F)cc5)nn4)cccc3C2=O)C(=O)N1` (stereo not drawn) [Compound 17], the IC50 in the assay on MM.1S cells and in the assay on Mino cells was below 150 nM each time. Moreover, the “Elution of CRBN from thalidomide FG beads” value at CRBN is given as “can elute CRBN from the magnetic beads bound to thalidomide”.

For orientation: inhibition means how much of the control response was suppressed. For orientation: IC50 means the concentration that inhibits the measured activity by half.
